SMILES strings stand for the structures. The source made the active and inactive calls. No rule for the calls is given here. Some results are limits rather than exact numbers.

The assay has as its system HeLa cell cycle, increased S-phase population. Briefly: HeLa S-phase population increase, dose response, cell-based, IC50 (AID 1117348).
As a reminder, the IC50 is the point on the concentration scale where inhibition reaches its midpoint. As to `C[C@]12CC[C@@H]3c4ccc(O)cc4CC[C@H]3[C@@H]1CC[C@@H]2OC(=O)CCC1CCCC1`, the IC50 was > 10 µM (inactive).
Regarding `CC(C)=CCNc1ncnc2c1ncn2[C@@H]1O[C@H](CO)[C@@H](O)[C@H]1O`, the IC50 is > 10 µM (inactive).
For the compound `CO[C@@H]1[C@@H](OC)[C@H](C)[C@@](O)(CC(=O)O)O[C@H]1[C@H](C)[C@H]1O[C@@]2(CC[C@@](C)([C@H]3CC[C@@](C)([C@@H]4O[C@@H]([C@H]5O[C@](C)(O)[C@H](C)C[C@@H]5C)C[C@@H]4OC4C[C@H](OC)[C@@H](OC)[C@H](C)O4)O3)O2)C[C@H](O)[C@H]1C` (stereo partly specified), the IC50 was > 10 µM (inactive).
For the compound `O=c1[nH]c(=O)n([C@H]2C[C@H](O)[C@@H](CO)O2)cc1Br`, the IC50 is > 10 µM (inactive).
The figure for `O=C1C(I)=CC(=C(c2cc(I)c(O)c(I)c2)c2ccccc2C(=O)O)C=C1I` is > 10 µM (inactive); for `CC(=O)Oc1ccc(C2(c3ccc(OC(C)=O)cc3)Oc3ccccc3NC2=O)cc1` it is > 10 µM (inactive); for `COc1cc([C@@H]2c3cc4c(cc3[C@H](O)[C@H]3COC(=O)[C@H]23)OCO4)cc(OC)c1OC` it is > 10 µM (inactive).
The same measure for `OC[C@H]1O[C@@H](n2cnc3c(=S)nc[nH]c32)[C@H](O)[C@@H]1O`: > 10 µM (inactive).
For `COC(=O)[C@H]1[C@H]2C[C@@H]3c4[nH]c5cc(OC)ccc5c4CCN3C[C@H]2C[C@@H](OC(=O)/C=C/c2ccc(O)c(OC)c2)[C@@H]1OC`, the IC50 was > 10 µM (inactive).
For `O=C(NOCC1CC1)c1ccc(F)c(F)c1Nc1ccc(I)cc1Cl`, the IC50 is > 10 µM (inactive).
For the compound `C[C@@H](O[C@H]1OCCN(Cc2n[nH]c(=O)[nH]2)[C@H]1c1ccc(F)cc1)c1cc(C(F)(F)F)cc(C(F)(F)F)c1`, the IC50 was > 10 µM (inactive).
On to `CN(C)CCOC(c1ccccc1)c1ccc(Br)cc1` (stereo unspecified), for which the IC50 was > 10 µM (inactive).
Consider `Nc1nc(Cl)nc2c1ncn2[C@@H]1O[C@H](CO)[C@@H](O)[C@@H]1F`, for which the IC50 was > 10 µM (inactive).
The same measure for `CN(C)CCC=C1c2ccccc2CCc2ccccc21`: > 10 µM (inactive).
Turning to `COc1c(C)c2c(c(O)c1C/C=C(\C)CCC(=O)OCCN1CCOCC1)C(=O)OC2`, the IC50 was 0.0147 µM.
The figure for `O=c1[nH]cc(F)c(=O)[nH]1` is > 10 µM (inactive).
On to `COCc1c(C(C)C)nc(C(C)C)c(/C=C/[C@@H](O)C[C@@H](O)CC(=O)O)c1-c1ccc(F)cc1`, for which the IC50 was > 10 µM (inactive).
As to `Cc1cc(=O)c2c(O)c3c(O)cc(=O)c4c3c3c(cc(O)c1c23)C(C)(C)C=4O`, the IC50 is > 10 µM (inactive).
`O=C(CCl)c1ccc(Cl)cc1Cl`: the IC50 was > 10 µM (inactive).
Turning to `Cc1nc(N)nc(N)c1-c1ccc(Cl)c(Cl)c1`, the IC50 was > 10 µM (inactive).
Consider `CCN(CC)CCCC(C)Nc1c2ccc(Cl)cc2nc2ccc(OC)cc12` (stereo unspecified), for which the IC50 is 2.26 µM.
The same measure for `CC(=O)Nc1ccn(C2COC(COC(=O)c3ccccc3)O2)c(=O)n1` (stereo unspecified): 0.312 µM; for `COc1cc(NCc2ccc3nc(N)nc(N)c3c2C)cc(OC)c1OC`: > 10 µM (inactive).
For the compound `O=C(O)CCCc1ccc(N(CCCl)CCCl)cc1`, the IC50 was 2.19 µM.
The figure for `CCC(=O)c1ccc(O)cc1` is > 10 µM (inactive); for `O=C1C2CC=CCC2C(=O)N1SC(Cl)(Cl)Cl` (stereo unspecified) it is > 10 µM (inactive); for `CCN(CCCCOC(=O)c1ccc(OC)c(OC)c1)C(C)Cc1ccc(OC)cc1` (stereo unspecified) it is > 10 µM (inactive).
For `CCc1oc2ccccc2c1C(=O)c1cc(I)c(O)c(I)c1`, the IC50 was > 10 µM (inactive).
With `O=C1c2c(O)cccc2Cc2cccc(O)c21`, the IC50 was > 10 µM (inactive).
Take `Oc1ccc([C@H]2CNCc3c2ccc(O)c3O)cc1O`: the IC50 is > 10 µM (inactive).
In the case of `COc1cccc2c1C(=O)c1c(O)c3c(c(O)c1C2=O)C[C@@](O)(C(=O)CO)C[C@@H]3O[C@H]1C[C@H](N)[C@H](O[C@@H]2CCCCO2)[C@H](C)O1`, the IC50 was 1.75 µM.
Turning to `CCc1nc(N)nc(N)c1-c1ccc(Cl)cc1`, the IC50 was > 10 µM (inactive).
`Nc1nc(=O)n([C@@H]2O[C@H](CO)[C@@H](O)[C@@H]2F)cc1I`: the IC50 was > 10 µM (inactive).
Take `COC(=O)c1nc(Cl)c(Cl)nc1N`: the IC50 is > 10 µM (inactive).
The same measure for `COCCOC(=O)C1=C(C)NC(C)=C(C(=O)OC/C=C/c2ccccc2)C1c1cccc([N+](=O)[O-])c1` (stereo unspecified): > 10 µM (inactive); for `CN(Cc1cnc2nc(N)nc(N)c2n1)c1ccc(C(=O)N[C@@H](CCC(=O)O)C(=O)O)cc1`: > 10 µM (inactive); for `CO[C@@]12[C@H](COC(N)=O)C3=C(C(=O)C(C)=C(N)C3=O)N1C[C@@H]1N[C@@H]12`: 0.143 µM.
The same measure for `CCCCCCCCCCCCCCCC[N+](C)(C)Cc1ccccc1`: > 10 µM (inactive).
The figure for `COC(=O)Nc1nc2ccc(C(=O)c3cccs3)cc2[nH]1` is > 10 µM (inactive).
In the case of `C=C(C)[C@H]1Cc2c(ccc3c2O[C@@H]2COc4cc(OC)c(OC)cc4[C@@H]2C3=O)O1`, the IC50 is > 10 µM (inactive).
As to `N[C@@H](Cc1ccc(N(CCCl)CCCl)cc1)C(=O)O`, the IC50 is > 10 µM (inactive).
On to `O=C(O)CCc1nc2ccccc2[nH]1`, for which the IC50 was > 10 µM (inactive).
For `C[n+]1c2cc(N)ccc2cc2ccc(N)cc21` (tested in a mixture with another compound), the IC50 is 1.96 µM.
For the compound `COc1ccc(-c2ccc3cc(C(=O)O)ccc3c2)cc1C12CC3CC(CC(C3)C1)C2`, the IC50 was > 10 µM (inactive).
Regarding `Cc1ccccc1C(OCCN(C)C)c1ccccc1` (stereo unspecified), the IC50 is > 10 µM (inactive).
In the case of `O=c1[nH]c(=O)n([C@H]2C[C@H](O)[C@@H](CO)O2)cc1F`, the IC50 was 0.169 µM.

These data come from PubChem BioAssay AID1117348 (Cheminformatics & Chemogenomics Research Group (CCRG), …, 2015).
